Reference: US9187458B2, “Cyanoquinoline derivatives” (Tianjin Hemay Bio-Tech Co., LTD., priority 2010, dated 2015)

How the values were obtained:
Format in all cases: cell-based
[1] = test system: AsPC-1 cells; assay: AsPC-1 Cell Growth Inhibition Test (MTT Assay); conditions: Homo sapiens, ASPC1, 72 h incubation
Outline: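 Human pancreatic cancer AsPC-1 cells seeded at 8000 cells/well, incubated overnight, then exposed to compound for 72 h at 37 °C, 5% CO2. Viability read by MTT (0.5 mg/ml, 3 h), formazan dissolved in DMSO, OD at 490 nm. Inhibition ratio = (PC−n)/(PC−NC)×100%; IC50 = concentration giving 50% inhibition, curve-fitted.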

[2] = test system: NCI-H460 cells; assay: NCI-H460 Cell Growth Inhibition Test (MTT Assay); conditions: Homo sapiens, 72 h incubation
Outline: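 Cells seeded at 2500 per well, left overnight, then exposed to compound for 72 h at 37 °C, 5% CO2. Viability by MTT (0.5 mg/ml, 3 h), DMSO-dissolved, OD 490 nm; inhibition ratio = (PC−n)/(PC−NC)×100%, IC50 from curve fit.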

[3] = test system: NCI-N87 cells; assay: NCI-N87 Cell Growth Inhibition Test (MTT Assay); conditions: Homo sapiens, 72 h incubation
Description: NCI-N87 Cell Growth Inhibition Test (MTT Assay)
1. Cell strains: NCI-N87 (human gastric carcinoma cell strains);
1. A plate (10 cm) of cells in logarithmic growth phase normally cultured was collected;
2. The culture solution was sucked out. The plate was washed wtih 5 ml of PBS 1-2 times;
3. PBS was sucked out. 1.5 ml of 0.25% pancreatin was added to infiltrate the cells for 1 min;
4. The pancreatin was sucked out. The culture plate was placed in an incubator. Digestion was carried out for about 12 min at 37° C.;
5. 4.5 ml of complete culture solution was added to the culture plate to stop the digestion. The cells were carefully scoured with micropipette (1 ml) to give a uniform cell suspension. The suspension was implanted into a 96-well cell culture disc by 17000 cells/100 μl per well. The culture plate was incubated overnight under 5% CO2 at 37° C. In day 2, 100 μl of culture solution comprising a compound was added in each well, and further incubated for 72 h under 5% CO2 at 37° C.
6. The culture solution was sucked out;
7. 100 μl of serum-free culture solution containing 0.5 mg/ml MTT was added in each well, and incubated for 3 h;
8. The culture solution was carefully sucked out;
9. 100 μl of DMSO was added in each welland vibrated to dissolve;
10. OD values were determined at 490 nM.
1. Calculation of Rrelative Inhibition Ratio The inhibition ratio of a compound on cell growth=(PC−n)/(PC−NC)×100%
IC50: Concentration of a compound where inhibition ratio was 50%. IC50 values were fitted with Origin7.5.

[4] = test system: Sk-Br-3 cells; assay: Sk-Br-3 Cell Growth Inhibition Test (SRB Assay); conditions: Homo sapiens, 91 h incubation
Outline: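 Sk-Br-3 cells seeded at 10000/well in DMEM with 10% FBS were incubated overnight, then exposed to compound for 91 h at 37° C, 5% CO2. TCA-fixed cells were SRB-stained and OD read at 570 nm. GI50, TGI and LC50 were derived from growth relative to time-zero, untreated and blank wells.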

IC50 [1]	IC50 [2]	Compound	IC50 [3]	GI50 [4]
810 nM	1100 nM	CN(C)C/C=C/C(=O)Nc1cc2c(Nc3ccc(OCc4ccc(Cl)cc4)c(Cl)c3)c(C#N)cnc2cc1OC1CCOC1 (centres unmarked) [Example 16, (E)-N-(4-(4-(4-CHLOROBENZYLOXY)-3-CHLOROPHENYLAMINO)-3-CYANO-7-(TETRAHYDROFURAN-3-YL-OXY)QUINOLIN-6-YL)-4-(DIMETHYLAMINO)-BUT-2-ENAMIDE]	26 nM	36 nM
1100 nM	1400 nM	CN(C)C/C=C/C(=O)Nc1cc2c(Nc3ccc(OCc4cccc(C#N)c4)c(Cl)c3)c(C#N)cnc2cc1OC1CCOC1 (centres unmarked) [Example 15, (E)-N-(4-(4-(3-CYANOBENZYLOXY)-3-CHLOROPHENYLAMINO)-3-CYANO-7-(TETRAHYDROFURAN-3-YL-OXY)QUINOLIN-6-YL)-4-(DIMETHYLAMINO)-BUT-2-ENAMIDE]	7.1 nM	–
1000 nM	1500 nM	Cc1ccccc1COc1ccc(Nc2c(C#N)cnc3cc(OC4CCOC4)c(NC(=O)/C=C/CN(C)C)cc23)cc1Cl (centres unmarked) [Example 17, (E)-N-(4-(4-(2-METHYLBENZYLOXY)-3-CHLOROPHENYLAMINO)-3-CYANO-7-(TETRAHYDROFURAN-3-YL-OXY)QUINOLIN-6-YL)-4-(DIMETHYLAMINO)-BUT-2-ENAMIDE]	21 nM	7 nM
1000 nM	2200 nM	CN(C)C/C=C/C(=O)Nc1cc2c(Nc3ccc(OCc4ccccn4)c(Cl)c3)c(C#N)cnc2cc1O[C@H]1CCOC1 [Example 138, (S,E)-N-(4-(3-CHLORO-4-(PYRIDIN-2-YL-METHOXY)PHENYLAMINO)-3-CYANO-7-(TETRAHYDROFURAN-3-YL-OXY)QUINOLIN-6-YL)-4-(DIMETHYLAMINO)-BUT-2-ENAMIDE]	4.4 nM	3.8 nM
1200 nM	1500 nM	CN(C)C/C=C/C(=O)Nc1cc2c(Nc3ccc(OCc4cccc(Cl)c4)c(Cl)c3)c(C#N)cnc2cc1OC1CCOC1 (centres unmarked) [Example 11, (E)-N-(4-(4-(3-CHLOROBENZYLOXY)-3-CHLOROPHENYLAMINO)-3-CYANO-7-(TETRAHYDROFURAN-3-YL-OXY)QUINOLIN-6-YL)-4-(DIMETHYLAMINO)-BUT-2-ENAMIDE]	11 nM	–
1000 nM	1600 nM	CN(C)C/C=C/C(=O)Nc1cc2c(Nc3ccc(F)c(Cl)c3)c(C#N)cnc2cc1OC1CCOC1 (centres unmarked) [Example 4, (E)-N-(4-(3-CHLORO-4-FLUOROPHENYLAMINO)-3-CYANO-7-(TETRAHYDROFURAN-3-YL-OXY)QUINOLIN-6-YL)-4-(DIMETHYLAMINO)-BUT-2-ENAMIDE]	79 nM	148 nM
878 nM	1200 nM	CN(C)C/C=C/C(=O)Nc1cc2c(Nc3ccc(OCc4ccccc4F)c(Cl)c3)c(C#N)cnc2cc1OC1CCOC1 (centres unmarked) [Example 8, (E)-N-(4-(4-(2-FLUOROBENZYLOXY)-3-CHLOROPHENYLAMINO)-3-CYANO-7-(TETRAHYDROFURAN-3-YL-OXY)QUINOLIN-6-YL)-4-(DIMETHYLAMINO)-BUT-2-ENAMIDE]	5.6 nM	–
922 nM	1800 nM	CN(C)C/C=C/C(=O)Nc1cc2c(Nc3ccc(OCc4ccccc4C#N)c(Cl)c3)c(C#N)cnc2cc1OC1CCOC1 (centres unmarked) [Example 13, (E)-N-(4-(4-(2-CYANOBENZYLOXY)-3-CHLOROPHENYLAMINO)-3-CYANO-7-(TETRAHYDROFURAN-3-YL-OXY)QUINOLIN-6-YL)-4-(DIMETHYLAMINO)-BUT-2-ENAMIDE]	4.4 nM	–
1500 nM	1040 nM	CN(C)C/C=C/C(=O)Nc1cc2c(Nc3ccc(F)c(Cl)c3)c(C#N)cnc2cc1O[C@H]1CCOC1 [Example 142, (S,E)-N-(4-(3-CHLORO-4-FLUOROPHENYLAMINO)-3-CYANO-7-(TETRAHYDROFURAN-3-YL-OXY)QUINOLIN-6-YL)-4-(DIMETHYLAMINO)-BUT-2-ENAMIDE]	75 nM	117 nM
458 nM	1700 nM	CN(C)C/C=C/C(=O)Nc1cc2c(Nc3ccc(OCc4cccc(F)c4)c(Cl)c3)c(C#N)cnc2cc1OC1CCOC1 (centres unmarked) [Example 9, (E)-N-(4-(4-(3-FLUOROBENZYLOXY)-3-CHLOROPHENYLAMINO)-3-CYANO-7-(TETRAHYDROFURAN-3-YL-OXY)QUINOLIN-6-YL)-4-(DIMETHYLAMINO)-BUT-2-ENAMIDE]	8.6 nM	15 nM
1000 nM	1700 nM	CN(C)C/C=C/C(=O)Nc1cc2c(Nc3ccc(OCc4ccccc4Cl)c(Cl)c3)c(C#N)cnc2cc1OC1CCOC1 (centres unmarked) [Example 10, (E)-N-(4-(4-(2-CHLOROBENZYLOXY)-3-CHLOROPHENYLAMINO)-3-CYANO-7-(TETRAHYDROFURAN-3-YL-OXY)QUINOLIN-6-YL)-4-(DIMETHYLAMINO)-BUT-2-ENAMIDE]	11 nM	6 nM
621 nM	1100 nM	Cc1ccc(COc2ccc(Nc3c(C#N)cnc4cc(OC5CCOC5)c(NC(=O)/C=C/CN(C)C)cc34)cc2Cl)cc1 (centres unmarked) [Example 19, (E)-N-(4-(4-(4-METHYLBENZYLOXY)-3-CHLOROPHENYLAMINO)-3-CYANO-7-(TETRAHYDROFURAN-3-YL-OXY)QUINOLIN-6-YL)-4-(DIMETHYLAMINO)-BUT-2-ENAMIDE]	32 nM	63 nM
